Measured values reported in US20240425814A1, “SALTS OF DIPEPTIDES AND THEIR USES IN CELL CULTURE” (Evonik Operations GmbH, priority 2021, published 2024).
Where a name gives a salt, the structure may show the parent alone. Read-outs that look alike come from different tables or passages of the source. Positions of bridges follow the written chain, without caps; N, C: chain ends. Residues, ends and D or L forms follow the SMILES beside them. Chains are numbered I, II in the order given.

What was measured:
[1] = Storage stability test of salt forms (HPLC); assay type: physicochemical
Description: Storage stability tests at 25° C. and at 60° C. were conducted with the different salt forms of the (Lys-Cys) 2. Stability was measured with a HPLC method.

[2] = system: human bone marrow stromal cells, mesenchymal stem cells (MSC); assay: In vitro cytotoxicity / viability assay (MTS) on mesenchymal stem cells; assay type: cell-based; details: high concentration (tested at 1 and 10 mM), 24 h with dipeptide, samples adjusted to pH 7, vs control medium without (Lys-Cys)2
Description: (§1) • The assay was performed with human bone marrow stromal cells, mesenchymal stem cells (MSC) or Chinese hamster ovary cells (subclone K1), respectively. In a first step, the cells were seeded in a transparent 96-well cell culture plate and incubated for 24 h in a CO2-Incubator (37° C., 5% CO2, 95% humidity) at a cell density of 10.000 cells/well and in a final volume of 100 μl/well. After the resting time of 24 hours the supernatants were discarded, and prepared dipeptide test compounds were added to the cells in a final volume of 100 μl/well. The control was rested in medium without dipeptide.
(§2) All samples were dissolved directly in associated cell culture medium. pH values of the samples were adjusted to pH 7 in advance, to exclude an influence on the cell viability due to a potentially lower pH value.
(§3) Different salt forms of (Lys-Cys)2 were tested in two different concentrations and each sample was tested in triplicates. […]
(§4) As a result of the reduction of MTS into a formazan product by metabolically active cells, an absorbance signal of formazan could be measured at a wavelength of 490 nm in a multiplate reader. […]
(§5) CHO-K1 as well as MSC cells were cultured for 24 hours before the addition of different (Lys-Cys)2 salts. […] After 24-hour cultivation with the dipeptides, the cell viability was assessed using the CellTiter 96® AQueous Non-Radioactive Cell Proliferation Assay (MTS).

[3] = system: CHO-K1 cells; assay: In vitro cytotoxicity / viability assay (MTS) on CHO-K1 cells; assay type: cell-based, Chinese hamster; details: high concentration (tested at 1 and 10 mM), 24 h with dipeptide, samples adjusted to pH 7, vs control medium without (Lys-Cys)2
Description: as §1, §2, §3, §4, §5

NCCCC[C@H](N)C(=O)N[C@@H](CSSC[C@H](NC(=O)[C@@H](N)CCCCN)C(=O)O)C(=O)O [2 HCl form, N,N′-di-L-lysyl-L-cystine dihydrochloride] (I: H-Lys-Cys-OH / II: H-Lys-Cys-OH; disulfide I:2-II:2)
storage stability ([1]; storage at 25° C. and at 60° C., HPLC, compared with the chloride free, basic form): significantly more stable | cell viability [2]: improved cell viability | cell viability [3]: improved cell viability

Cl.Cl.Cl.Cl.NCCCC[C@H](N)C(=O)N[C@@H](CSSC[C@H](NC(=O)[C@@H](N)CCCCN)C(=O)O)C(=O)O [4 HCl form, N,N′-di-L-lysyl-L-cystine tetrahydrochloride] (I: H-Lys-Cys-OH / II: H-Lys-Cys-OH; disulfide I:2-II:2)
storage stability [1]: significantly more stable | cell viability [3]: reduced cell viability
